Test results as given in US7754718B2 (priority 2004, dated 2010).
Where two headings read alike, the source gives them in different places.

Legend:
HBV = assay: In vitro antiviral assay for HBV (Table 1); format: cell-based, Hepatitis B virus; details: Hepatitis B virus, read-out: Antiviral Activities (EC50, μM) HBV
Experimental: (§1) The antiviral assays for HBV, (Doong et al., 1991, Proc. Natl. Acad. Sci. U.S.A. 88:8495-8499) HSV-1, (Bastow et al., 1983, Antimicrob. Agents Chemother. 23: 914-917) HSV-2, (Bastow et al., 1983, Antimicrob. Agents Chemother. 23:914-917) EBV, (Yao et al., 1993, Antimicrob. Agents Chemother. 37:1420-1425), CMV (Andreoni et al., 2002, J. Med. Virol. 67:33-40) and HIV (Mellors et al., 1992, Mol. Pharmacol. 41: 446-451) were performed according to the previously reported procedures. Anti-HCV activities were tested in Huh-Luc/neo cell line. Cells were seeded into 48-well plates and grown until confluent. Different concentrations of drugs were added into media (DMEM, 10% dFBS) and incubated for 3 days. At the end of 3-day treatment, medium were removed and 50 μl of Passive lysis buffer (Promega) were added. Cell lysate was shaken at room temperature for 15 min. 30 μl/well of cell lysate was transferred to another 96-well plate, 100 μl/well of luciferase activity assay substrate was added into plate and read by a luminometer (Amersham) immediately.

HCV = assay: Anti-HCV activity in Huh-Luc/neo cell line, luciferase activity after 3-day treatment; format: cell-based, Hepatitis C virus; details: Hepatitis C virus, 72 h; for EC50: read-out: Antiviral Activities (EC50, μM) HCV
Experimental: as §1

HSV-1 = assay: In vitro antiviral assay for HSV-1; format: cell-based, Herpes Simplex Virus 1
Experimental: as §1

HSV-2 = assay: In vitro antiviral assay for HSV-2; format: cell-based, Herpes Simplex Virus 2
Experimental: as §1

EBV = assay: In vitro antiviral assay for EBV; format: cell-based, Epstein-Barr Virus; details: human gammaherpesvirus 4, read-out: Antiviral Activities (EC50, μM) EBV
Experimental: as §1

HIV = assay: In vitro antiviral assay for HIV; format: cell-based, human immunodeficiency virus; details: Human immunodeficiency virus 1, read-out: Antiviral Activities (EC50, μM) HIV, in vitro; (T) after a value means toxic
Experimental: as §1

[1] = Cell cytotoxicity assay on MT-2 cells; format: cell-based; details: human, read-out: Cytotoxity (ID50, μM) MT-2
Experimental: (§2) Cytotoxicities of test compounds on MT-2 (Mellors et al., 1992 Mol. Pharmacol. 41:446-451) and CEM (Grove et al., 1995, Cancer Res. 55:3008-3011) cells were determined according to the previously reported procedures. Hepg2 cells were seeded at a density of 10^4 cells/ml/well in 24-well plates and cultured in MEME supplemented with 10% FBS at 37° C. and 5% CO2. Each test compound at different concentrations was added on the second day of the culture and the cells were incubated for another 3 days. At the end of the incubation period, the medium was removed and 0.5 ml of 0.5% methylene blue in 50% ethanol (v/v) was added to each well and set at room temperature for 30-60 minutes. The methylene blue was removed; the plates were washed with water and allowed to air dry. Once dry, 1% sarcosyl was added to dissolve the stained cell layer. The absorbance at 595 nm was measured with a microplate reader (Molecular Devices Corp. Sunnyvale, Calif.). The cytotoxicity to CEM cell was calculated as described previously (Grove et al., 1995, Cancer Res. 55 (14): 3008-3011).

[2] = Cell cytotoxicity assay on CEM cells; format: cell-based; details: human, read-out: Cytotoxity (ID50, μM) CEM
Experimental: as §2

[3] = Huh-Luc/neo cells, 3 days, read-out: HCV percent of inhibition
[4] = Human alphaherpesvirus 1, read-out: Antiviral Activities (EC50, μM) HSV-1
[5] = Human alphaherpesvirus 2, read-out: Antiviral Activities (EC50, μM) HSV-2
[6] = Huh-Luc/neo cells, 3 days, given as a bound only

| SMILES | EC50 (HBV) [µM] | inhibition at 10 µM (HCV; [3]) [%] | EC50 (HSV-1; [4]) [µM] | EC50 (HSV-2; [5]) [µM] | EC50 (EBV) [µM] | EC50 (HIV) [µM] | IC50 [1] [µM] | IC50 [2] [µM] | EC50 (HCV; [6]) [µM] | melting point | inhibition at 3 µM (HCV; at 3 μM, Huh-Luc/neo cells, 3 days, read-out: HCV percent of inhibition) [%] | EC50 (HCV) [µM] | EC50 (HSV-1; in vitro, read-out: Antiviral Activities (EC50, μM) HSV-1) [µM] | EC50 (HSV-2; in vitro, read-out: Antiviral Activities (EC50, μM) HSV-2) [µM] | inhibition at 1 µM (HCV; at 1 μM, Huh-Luc/neo cells, 3 days, read-out: HCV percent of inhibition) [%] |
| --- | --- | --- | --- | --- | --- | --- | --- | --- | --- | --- | --- | --- | --- | --- | --- |
| CCOC(=O)c1c(C(=O)OCC)c(-c2ccc3c(c2)OCO3)c2c3c(ccc2c1OC)OCO3 [Compound 35, 9-Benzo[1,3]dioxol-5-yl-6-methoxy-naphtho[1,2-d][1,3]dioxole-7,8-dicarboxylic acid diethyl ester] | > 20 | 60 | > 50 | > 50 | > 20 | > 24 | 24 | > 100 | – | – | – | – | – | – | – |
| CC(=O)NN1Cc2c(cc3ccc4c(c3c2-c2ccc3c(c2)OCO3)OCO4)C1=O [Compound 26, N-(10-Benzo[1,3]dioxol-5-yl-7-oxo-7,9-dihydro-1,3-dioxa-8-aza-dicyclopenta[a,g]naphthalen-8-yl)-acetamide] | 1 | – | 5 | 10 | 13 | > 7 | 7 | 40 | > 10 | – | – | – | – | – | – |
| Nc1ccn([C@H]2CC[C@@H](CO)O2)c(=O)n1 [ddC, 2′,3′-Dideoxycytidine, reference compound] | – | – | – | – | – | 0.8 | 70 | 5 | – | – | – | – | – | – | – |
| O=c1[nH][nH]c(=O)c2c(-c3ccc4c(c3)OCO4)c3c4c(cc(Cl)c3cc12)OCO4 [Compound 41, 11-Benzo[1,3]dioxol-5-yl-5-chloro-8,9-dihydro-1,3-dioxa-8,9-diaza-cyclopenta[a]anthracene-7,10-dione] | > 10 | 60 | 7 | > 40 | > 20 | > 30 | 30 | > 100 | – | 316 °C (dec.) | – | – | – | – | – |
| NC(=O)c1cc2ccc3c(c2c(-c2ccc4c(c2)OCO4)c1C(N)=O)OCO3 [Compound 36, 9-Benzo[1,3]dioxol-5-yl-naphtho[1,2-d][1,3]dioxole-7,8-dicarboxylic acid diamide] | > 20 | – | > 50 | > 50 | > 20 | > 100 | > 100 | > 100 | > 10 | – | – | – | – | – | – |
| O=C(OCc1ccccc1)c1cc2ccc3c(c2c(-c2ccc4c(c2)OCO4)c1COCc1ccccc1)OCO3 [Compound 4, 9-Benzo[1,3]dioxol-5-yl-8-benzyloxymethyl-naphtho[1,2-d][1,3]-dioxole-7-carboxylic acid benzyl ester] | > 10 | 71 | > 50 | > 50 | > 20 | > 100 | > 100 | > 50 | – | – | – | – | – | – | – |
| COC1=NC(=O)c2c1cc1ccc3c(c1c2-c1ccc2c(c1)OCO2)OCO3 [Compound 23, 10-Benzo[1,3]dioxol-5-yl-7-methoxy-1,3-dioxa-8-aza-dicyclopenta[a,g]naphthalen-9-one] | – | – | – | – | – | – | – | – | – | 306 to 308 °C | – | – | – | – | – |
| CC(=O)NN1Cc2cc3ccc4c(c3c(-c3ccc5c(c3)OCO5)c2C1=O)OCO4 [Compound 27, N-(10-Benzo[1,3]dioxol-5-yl-9-oxo-7,9-dihydro-1,3-dioxa-8-aza-dicyclopenta[a,g]naphthalen-8-yl)-acetamide] | > 20 | 25 | 17 | 40 | > 20 | > 25 | 25 | 32 | – | – | – | – | – | – | – |
| O=C1c2cc3ccc4c(c3c(-c3ccc5c(c3)OCO5)c2CN1CCCOCc1ccccc1)OCO4 [Compound 20, 10-Benzo[1,3]dioxol-5-yl-8-(3-benzyloxy-propyl)-8,9-dihydro-1,3-dioxa-8-aza-dicyclopenta[a,g]naphthalen-7-one] | > 20 | 85 | 13 | > 20 | > 20 | > 28 | 28 | 67 | – | – | – | – | – | – | – |
| CN(C)C(=O)c1cc2ccc3c(c2c(-c2ccc4c(c2)OCO4)c1C(=O)O)OCO3 [Compound 14, 9-Benzo[1,3]dioxol-5-yl-7-dimethylcarbamoyl-naphtho[1,2-d][1,3]dioxole-8-carboxylic acid] | > 10 | – | > 50 | > 50 | > 20 | > 70 | 70 | 76 | > 10 | – | – | – | – | – | – |
| COc1ccc(-c2c(C(=O)O)c(C(N)=O)cc3ccc4c(c23)OCO4)cc1OC [Compound 15, 7-Carbamoyl-9-(3,4-dimethoxy-phenyl)-naphtho[1,2-d][1,3]dioxole-8-carboxylic acid] | 0.8 | – | 0.8 | > 3 | > 20 | > 10 | 10 | 3 | – | – | 64 | – | – | – | – |
| O=c1[nH][nH]c(=O)c2c(-c3ccc4c(c3)OCO4)c3c4c(ccc3cc12)OCO4 [Compound 28, 11-Benzo[1,3]dioxol-5-yl-8,9-dihydro-1,3-dioxa-8,9-diaza-cyclopenta[a]anthracene-7,10-dione] | 0.03 | 74 | 1.4 | 1.4 | > 25 | – | 16 | 50 | – | – | – | – | – | – | – |
| CN1C(=O)c2cc3ccc4c(c3c(-c3ccc5c(c3)OCO5)c2C1=O)OCO4 [Compound 23] | > 10 | – | > 50 | > 50 | > 20 | > 100 | > 100 | > 100 | – | – | – | > 10 | – | – | – |
| Nc1nc2c(ncn2COCCO)c(=O)[nH]1 [ACV, reference compound] | – | – | – | – | – | – | – | – | – | – | – | – | 8 | 21 | – |
| Cc1c(C(=O)OCCCO)cc2ccc3c(c2c1-c1ccc2c(c1)OCO2)OCO3 [Compound 7, 9-Benzo[1,3]dioxol-5-yl-8-methyl-naphtho[1,2-d][1,3]dioxole-7-carboxylic acid 3-hydroxy-propyl ester] | > 23 | – | > 25 | > 25 | > 15 | > 10 | 10 | 46 | > 10 | – | – | – | – | – | – |
| O=C(OCCCOCc1ccccc1)c1cc2ccc3c(c2c(-c2ccc4c(c2)OCO4)c1COCc1ccccc1)OCO3 [Compound 6, 9-Benzo[1,3]dioxol-5-yl-8-benzyloxymethyl-naphtho[1,2-d][1,3]dioxole-7-carboxylic acid 3-benzyloxy-propyl ester] | > 10 | 55 | > 50 | > 50 | > 20 | > 100 | > 100 | > 50 | – | – | – | – | – | – | – |
| CNC(=O)c1cc2ccc3c(c2c(-c2ccc4c(c2)OCO4)c1C(=O)O)OCO3 [Compound 13, 9-Benzo[1,3]dioxol-5-yl-7-methylcarbamoyl-naphtho[1,2-d][1,3]dioxole-8-carboxylic acid] | > 20 | – | 12 | > 25 | > 20 | > 26 | 26 | 29 | > 10 | – | – | – | – | – | – |
| O=C1NCc2c1cc1ccc3c(c1c2-c1ccc2c(c1)OCO2)OCO3 [Compound 18, 10-Benzo[1,3]dioxol-5-yl-8,9-dihydro-1,3-dioxa-8-aza-dicyclopenta[a,g]naphthalen-7-one] | 0.08 | – | 0.29 | 0.16 | 11 | > 4 | 4 | 4.5 | – | – | – | – | – | – | 55 |
